Tests used:
Format in all cases: in vivo
[1] = system: wheat (Triticum aestivum); assay: Test A postemergence application, visual injury rating 0-100; conditions: 10 days
Procedure, shortened: (§1)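 Scale 0–100 (no effect to complete control), visual, versus untreated controls, read 10 days after application. Application: preemergence directed spray onto seeded loam–sand soil, or postemergence to young plants; formulation in non-phytotoxic solvent with surfactant.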

[2] = system: galium (catchweed bedstraw, Galium aparine); assay: as above; conditions: 10 days
Procedure, shortened: as §1

soybean (Glycine max) [3] = assay: as above; conditions: 10 days
Procedure, shortened: as §1

[4] = system: palmer (palmer amaranth, palmer pigweed, Amaranthus palmeri); assay: as above; conditions: 10 days
Procedure, shortened: as §1

[5] = system: horseweed (Erigeron canadensis); assay: as above; conditions: 10 days
Procedure, shortened: as §1

[6] = system: oat, wild (wild oat, Avena fatua); assay: as above; conditions: 10 days
Procedure, shortened: as §1

corn (Zea mays) [7] = assay: as above; conditions: 10 days
Procedure, shortened: as §1

[8] = system: green foxtail (Setaria viridis); assay: as above; conditions: 10 days
Procedure, shortened: as §1

[9] = system: ryegrass, Italian (italian ryegrass, Lolium multiflorum); assay: as above; conditions: 10 days
Procedure, shortened: as §1

[10] = system: barnyardgrass (Echinochloa crus-galli); assay: as above; conditions: 10 days
Procedure, shortened: as §1

kochia (Bassia scoparia) [11] = assay: as above; conditions: 10 days
Procedure, shortened: as §1

[12] = system: ragweed (common ragweed, Ambrosia artemisiifolia); assay: as above; conditions: 10 days
Procedure, shortened: as §1

[13] = system: blackgrass (Alopecurus myosuroides); assay: as above; conditions: 10 days
Procedure, shortened: as §1

[14] = system: wheat (Triticum aestivum); assay: Test A preemergence soil spray, visual injury rating 0-100; conditions: 10 days, 0 = no effect, 100 = complete control
Procedure, shortened: as §1

soybean (Glycine max) [15] = assay: as above; conditions: 10 days, 0 = no effect, 100 = complete control
Procedure, shortened: as §1

[16] = system: palmer (palmer amaranth, palmer pigweed, Amaranthus palmeri); assay: as above; conditions: 10 days, 0 = no effect, 100 = complete control
Procedure, shortened: as §1

[17] = system: oat, wild (wild oat, Avena fatua); assay: as above; conditions: 10 days, 0 = no effect, 100 = complete control
Procedure, shortened: as §1

corn (Zea mays) [18] = assay: as above; conditions: 10 days, 0 = no effect, 100 = complete control
Procedure, shortened: as §1

[19] = system: green foxtail (Setaria viridis); assay: as above; conditions: 10 days, 0 = no effect, 100 = complete control
Procedure, shortened: as §1

[20] = system: ryegrass, Italian (italian ryegrass, Lolium multiflorum); assay: as above; conditions: 10 days, 0 = no effect, 100 = complete control
Procedure, shortened: as §1

[21] = system: barnyardgrass (Echinochloa crus-galli); assay: as above; conditions: 10 days, 0 = no effect, 100 = complete control
Procedure, shortened: as §1

kochia (Bassia scoparia) [22] = assay: as above; conditions: 10 days, 0 = no effect, 100 = complete control
Procedure, shortened: as §1

[23] = system: ragweed (common ragweed, Ambrosia artemisiifolia); assay: as above; conditions: 10 days, 0 = no effect, 100 = complete control
Procedure, shortened: as §1

[24] = system: blackgrass (Alopecurus myosuroides); assay: as above; conditions: 10 days, 0 = no effect, 100 = complete control
Procedure, shortened: as §1

[25] = system: barnyardgrass (Echinochloa crusgalli); assay: Test B flooded paddy test, visual plant response rating 0-100; conditions: 250 g ai/ha, Flood, applied to paddy water, evaluated after 13 days
Procedure, shortened: (§2)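 Compounds applied to standing paddy water (3 cm above soil, maintained for the test duration) on 2-leaf-stage plants; visual rating vs controls at 13 days, greenhouse.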

rice (Oryza sativa) = assay: as above; conditions: 250 g ai/ha, Flood, applied to paddy water, evaluated after 13 days
Procedure, shortened: as §2

[26] = system: sedge, umbrella (small-flower umbrella sedge, Cyperus difformis); assay: as above; conditions: 250 g ai/ha, Flood, applied to paddy water, evaluated after 13 days
Procedure, shortened: as §2

[27] = system: ducksalad (Heteranthera limosa); assay: as above; conditions: 250 g ai/ha, Flood, applied to paddy water, evaluated after 13 days
Procedure, shortened: as §2

[28] = 31 g ai/ha, postemergence, 0 = no effect, 100 = complete control
[29] = Postemergence, 125 g ai/ha, 0 is no effect, 100 is complete control

Q: `CC1(C(=O)NC2CCC(C(=O)NS(C)(=O)=O)C2)CN(c2cc(F)cc(F)c2)C(=O)O1` (stereo not shown) [Compound 13] was tested. Which “Wheat plant response rating (0-100)” value [1, 28] did it give?
A: 50

Q: What about the “Wheat plant response rating (0 to 100 scale)” value [1, 29] of the same molecule?
A: 70

Q: And the “Galium plant response rating (0-100)” value [2, 28]?
A: 0

Q: What about the “Galium plant response rating (0 to 100 scale)” value [2, 29] of the same molecule?
A: 70

Q: And the “Soybean plant response rating (0-100)” value (soybean (Glycine max) [3]; [28])?
A: 0

Q: And the “Soybean plant response rating (0 to 100 scale)” value (soybean (Glycine max) [3]; [29])?
A: 50

Q: What about the “Amaranth, Palmer plant response rating (0-100)” value [4, 28] of the same molecule?
A: 10

Q: And the “Amaranth, Palmer / Pigweed, Palmer plant response rating (0 to 100 scale)” value [4, 29]?
A: 90

Q: And the “Horseweed plant response rating (0-100)” value [5, 28]?
A: 0

Q: And the “Horseweed plant response rating (0 to 100 scale)” value [5, 29]?
A: 20

Q: And the “Oat, Wild plant response rating (0-100)” value [6, 28]?
A: 10

Q: And the “Oat, Wild plant response rating (0 to 100 scale)” value [6, 29]?
A: 50

Q: What about the “Corn plant response rating (0-100)” value (corn (Zea mays) [7]; [28]) of the same molecule?
A: 0

Q: What about the “Corn plant response rating (0 to 100 scale)” value (corn (Zea mays) [7]; [29]) of the same molecule?
A: 30

Q: And the “Foxtail, Green plant response rating (0-100)” value [8, 28]?
A: 0

Q: What about the “Foxtail, Green plant response rating (0 to 100 scale)” value [8, 29] of the same molecule?
A: 50

Q: What about the “Ryegrass, Italian plant response rating (0-100)” value [9, 28] of the same molecule?
A: 20

Q: What about the “Ryegrass, Italian plant response rating (0 to 100 scale)” value [9, 29] of the same molecule?
A: 70

Q: What about the “Barnyardgrass plant response rating (0-100)” value [10, 28] of the same molecule?
A: 10

Q: What about the “Barnyardgrass plant response rating (0 to 100 scale)” value [10, 29] of the same molecule?
A: 70

Q: What about the “Kochia plant response rating (0-100)” value (kochia (Bassia scoparia) [11]; [28]) of the same molecule?
A: 0

Q: What about the “Kochia plant response rating (0 to 100 scale)” value (kochia (Bassia scoparia) [11]; [29]) of the same molecule?
A: 50

Q: And the “Ragweed plant response rating (0-100)” value [12, 28]?
A: 0

Q: What about the “Ragweed plant response rating (0 to 100 scale)” value [12, 29] of the same molecule?
A: 20

Q: And the “Blackgrass plant response rating (0-100)” value [13, 28]?
A: 10

Q: What about the “Blackgrass plant response rating (0 to 100 scale)” value [13, 29] of the same molecule?
A: 60

Q: What about the “Wheat plant response rating (0-100)” value ([14]; 31 g ai/ha) of the same molecule?
A: 0

Q: What about the “Wheat plant response rating (0 to 100 scale)” value ([14]; 125 g ai/ha) of the same molecule?
A: 80

Q: What about the “Soybean plant response rating (0-100)” value (soybean (Glycine max) [15]; 31 g ai/ha) of the same molecule?
A: 0

Q: And the “Soybean plant response rating (0 to 100 scale)” value (soybean (Glycine max) [15]; 125 g ai/ha)?
A: 0

Q: What about the “Amaranth, Palmer plant response rating (0-100)” value ([16]; 31 g ai/ha) of the same molecule?
A: 0

Q: What about the “Amaranth, Palmer plant response rating (0 to 100 scale)” value ([16]; 125 g ai/ha) of the same molecule?
A: 0

Q: And the “Oat, Wild plant response rating (0-100)” value ([17]; 31 g ai/ha)?
A: 0

Q: What about the “Oat, Wild plant response rating (0 to 100 scale)” value ([17]; 125 g ai/ha) of the same molecule?
A: 20

Q: What about the “Corn plant response rating (0-100)” value (corn (Zea mays) [18]; 31 g ai/ha) of the same molecule?
A: 0

Q: And the “Corn plant response rating (0 to 100 scale)” value (corn (Zea mays) [18]; 125 g ai/ha)?
A: 0

Q: And the “Foxtail, Green plant response rating (0-100)” value ([19]; 31 g ai/ha)?
A: 0

Q: And the “Foxtail, Green plant response rating (0 to 100 scale)” value ([19]; 125 g ai/ha)?
A: 50

Q: And the “Ryegrass, Italian plant response rating (0-100)” value ([20]; 31 g ai/ha)?
A: 20

Q: And the “Ryegrass, Italian plant response rating (0 to 100 scale)” value ([20]; 125 g ai/ha)?
A: 90

Q: And the “Barnyardgrass plant response rating (0-100)” value ([21]; 31 g ai/ha)?
A: 0

Q: What about the “Barnyardgrass plant response rating (0 to 100 scale)” value ([21]; 125 g ai/ha) of the same molecule?
A: 20

Q: And the “Kochia plant response rating (0-100)” value (kochia (Bassia scoparia) [22]; 31 g ai/ha)?
A: 0

Q: What about the “Kochia plant response rating (0 to 100 scale)” value (kochia (Bassia scoparia) [22]; 125 g ai/ha) of the same molecule?
A: 0

Q: And the “Ragweed plant response rating (0-100)” value ([23]; 31 g ai/ha)?
A: 40

Q: What about the “Ragweed plant response rating (0 to 100 scale)” value ([23]; 125 g ai/ha) of the same molecule?
A: 20

Q: What about the “Blackgrass plant response rating (0-100)” value ([24]; 31 g ai/ha) of the same molecule?
A: 20

Q: What about the “Blackgrass plant response rating (0 to 100 scale)” value ([24]; 125 g ai/ha) of the same molecule?
A: 50

Q: What about the “Plant response rating, Barnyardgrass (0 to 100 scale, 0 is no effect and 100 is complete control)” value [25] of the same molecule?
A: 0

Q: What about the “Plant response rating, Rice (0 to 100 scale, 0 is no effect and 100 is complete control)” value (rice (Oryza sativa)) of the same molecule?
A: 0

Q: And the “Plant response rating, Sedge, Umbrella (0 to 100 scale, 0 is no effect and 100 is complete control)” value [26]?
A: 0

Q: And the “Plant response rating, Ducksalad (0 to 100 scale, 0 is no effect and 100 is complete control)” value [27]?
A: 0
